The values below come from patent US20050003383A1, “Linoleate isomerase” (Arkion Life Sciences LLC d/b/a Bio-Technical Resources …, priority 1999, published 2005).

Like-named read-outs stand apart in the source and are kept apart here.

Broadly, the Ki is the equilibrium dissociation constant of an inhibitor or competing ligand from its target. For orientation: Km means the concentration of substrate that gives half-maximal velocity.

Series [1] concerns linoleate isomerase from Clostridium sporogenes. Nature of the series: C. sporogenes linoleate isomerase kinetic assay, absorbence at 234 nm, partially purified enzyme. As to conditions: for Activity / Activity (%): cofactor 50 μM, DTT 1 mM; for Activity (%): no cofactor = 100; for effect on isomerase activity: fatty acids and derivatives fixed at 35 μM; for Vmax / Km: compound as substrate; for Km: read-out: Km; for substrate has an inhibitory effect at concentrations above: substrate concentration dependency of isomerization. It counts as biochemical. The method, then: In this experiment, all kinetic experiments were performed in a quartz cuvette (1-cm light-path with a magnetic stirrer) at room temperature using a HP 8452A diode array spectrophotometer. The cuvette was filled with 1 ml of incubation buffer containing 50 μg protein, 0.1 M potassium phosphate, pH7.5, 10 mM NaCl and 10% 1,2-propane diol. The isomerization was initiated by adding a small aliquot (1-2 μl) of freshly diluted substrate-stock (˜[…] linoleic acid) in 1,2-propane diol at 50 seconds. The increase in absorbence at 234 nm was monitored and recorded. […] The amount of product formed was calculated based on a molar extinction coefficient of 24,000.

In series [2] the target is P. acnes ATCC 6919 linoleate isomerase (Cutibacterium acnes, UniProt Q6A8X5). It counts as biochemical, Propionibacterium acnes. As to conditions: for inhibition of isomerase activity: EDTA 5 mM, 1,10-phenanthroline 1 mM, p-chloromercuribenzoate 5 μM, N-ethylmaleimide 100 μM. The method, then: Formation of CLA was determined by measuring the absorbence at 234 nm. […] Generally, the isomerase was assayed using an endpoint assay after 30 to 60 minutes incubation at room temperature. FIG. 18 (time course assay at different linoleic acid levels) and FIG. 19 (end point assay at different linoleic acid levels) show the effect of increasing substrate concentration on formation of […].

Series [3] in a line: Linoleate isomerase characterization (Table 7B), enzymes compared on linoleic acid. It counts as biochemical. The method, then:
Table 7B is a summary of the kinetic data and characterization of linoleate isomerases from P. acnes (crude extract prior to DEAE purification as in Example 11, except that the Vmax was determined using enzyme purified through the chromatofocusing step as in Example 11), L. reuteri (enzyme purified through the gel filtration step as in Example 3), and C. sporogenes (enzyme purified through the gel filtration step as in Example 17), all isolated by the present inventors, and the B. fibrisolvens A-38 linoleate isomerase (crude extract; Kepler and Tove, 1967, J. Biochem. 242:5686-5692). The substrate in these experiments was linoleic acid.

[4] abbreviates: isomerization of (cis, cis, cis, cis)-6, 9, 12, 15 octadecatetraenoic acid 20 PPM.
Where [5] appears, read: isomerization of linoleic acid 10 PPM.
Where [6] appears, read: compound as substrate at 10 PPM, activity with linoleic acid set as 100%.
[7] abbreviates: compound added at 35 μM, substrate LA 35 μM, pH 7.5, LA alone = 100%.

As to `O[C@H](CS)[C@H](O)CS` (racemic) [DTT, dithiothreitol], in series [1] (setting [4]), the “Activity” value came out at 5.9 nmol/min and the “Activity (%)” value is reported as 95%. In addition, in series [1] (setting [5]), the “Activity” value came to 12.8 ± 3.8 nmol/min and the “Activity (%)” value was determined as 121%.
Turning to `CCCCCCCC[C@H]1O[C@H]1CCCCCCCC(=O)O` (relative stereo) [epoxystearic acid, (cis)-9:10-epoxyoctadecanoic], the “RELATIVE ACTIVITY %” value in series [1] (setting [6]) was found to be 0%.
On to `CCCCC/C=C\C/C=C\CCCCCCCCCC(=O)OC` [(cis, cis)-11, 14 eicosadienoic acid methyl ester], for which the “RELATIVE ACTIVITY %” value in series [1] (setting [6]) worked out at 0%.
Turning to `CCCCC/C=C\C/C=C\CCCCCCCCCC(=O)O` [(cis, cis)-11, 14 eicosadienoic acid], the “RELATIVE ACTIVITY %” value in series [1] (setting [7]) was 0%; in series [1] (setting [6]) it was 20%.
With `CCCCC/C=C\C/C=C\CCCCCCCCCCCC(=O)O` [(cis, cis)-13, 16 docosadienoic acid], the “RELATIVE ACTIVITY %” value in series [1] (setting [6]) is 0%.
Still for that read-out and setting: the same measure for `CCCCC/C=C\C/C=C\C/C=C\CCCCCCC(=O)O` [(cis, cis, cis)-8, 11, 14 eicosatrienoic acid]: 0%.
Turning to `Nc1ncnc2c1ncn2[C@@H]1O[C@H](COP(=O)(O)OP(=O)(O)O)[C@@H](O)[C@H]1O` [ADP], in series [1] (setting [4]), the “Activity” value was found to be 5.7 nmol/min and the “Activity (%)” value is reported as 92%. In addition, in series [1] (setting [5]), the “Activity” value was 11.1 ± 1.7 nmol/min and the “Activity (%)” value is listed as 105%. In series [2] (60 minute assays), the “effect of possible cofactors on isomerase activity” value (“effect of possible cofactors” for short) is listed as “No significant effect”.
In the same order, the values of `Nc1ncnc2c1ncn2[C@@H]1O[C@H](COP(=O)(O)OP(=O)(O)OP(=O)(O)O)[C@@H](O)[C@H]1O` [ATP] are 6.1 nmol/min, 98%, 11.1 ± 1.4 nmol/min, 105% and “No significant effect”.
As to `[Ca]` [Calcium], the “effect of possible cofactors” value in series [2] (60 minute assays) is “no effect”.
On to `CC(C)(COP(=O)(O)OP(=O)(O)OC[C@H]1O[C@@H](n2cnc3c(N)ncnc32)[C@H](O)[C@@H]1OP(=O)(O)O)[C@@H](O)C(=O)NCCC(=O)NCCS` [CoA], for which, in series [1] (setting [4]), the “Activity” value came to 6.5 nmol/min and the “Activity (%)” value is reported as 105%.
Take `Cc1cc2nc3c(=O)[nH]c(=O)nc-3n(C[C@H](O)[C@H](O)[C@H](O)COP(=O)(O)OP(=O)(O)OC[C@H]3O[C@@H](n4cnc5c(N)ncnc54)[C@H](O)[C@@H]3O)c2cc1C` [FAD]: in series [2] (60 minute assays), the “effect of possible cofactors” value is recorded as “No significant effect”.
Consider `Cc1cc2nc3c(=O)[nH]c(=O)nc-3n(C[C@H](O)[C@H](O)[C@H](O)COP(=O)(O)O)c2cc1C` [FMN], for which the “effect of possible cofactors” value in series [2] (60 minute assays) is “No significant effect”.
`CCN1C(=O)C=CC1=O` [N-ethylmaleimide]: the “inhibition of isomerase activity” value in series [2] is “not inhibited”.
`NC(=O)C1=CN([C@@H]2O[C@H](COP(=O)(O)OP(=O)(O)OC[C@H]3O[C@@H](n4cnc5c(N)ncnc54)[C@H](O)[C@@H]3O)[C@@H](O)[C@H]2O)C=CC1` [NADH]: in series [1] (setting [4]), the “Activity” value was 6.4 nmol/min and the “Activity (%)” value turned out to be 103%. The “Activity (%)” value in series [1] (setting [5]) is 99%. Moreover, the “effect of possible cofactors” value in series [2] (60 minute assays) is given as “No significant effect”.
For the molecule `NC(=O)C1=CN([C@@H]2O[C@H](COP(=O)(O)OP(=O)(O)OC[C@H]3O[C@@H](n4cnc5c(N)ncnc54)[C@H](OP(=O)(O)O)[C@@H]3O)[C@@H](O)[C@H]2O)C=CC1` [NADPH], the entries for the “Activity” value in series [1] (setting [4]) and in series [1] (setting [5]) were 6.3 nmol/min and 11.1 ± 1.5 nmol/min, respectively. In addition, the “Activity (%)” value is 102% in series [1] (setting [4]) and 105% in series [1] (setting [5]). The “effect of possible cofactors” value in series [2] (60 minute assays) was “No significant effect”.
Regarding `NC(=O)c1ccc[n+]([C@@H]2O[C@H](COP(=O)([O-])OP(=O)(O)OC[C@H]3O[C@@H](n4cnc5c(N)ncnc54)[C@H](OP(=O)(O)O)[C@@H]3O)[C@@H](O)[C@H]2O)c1` [NADP], in series [2] (60 minute assays), the “effect of possible cofactors” value was “No significant effect”.
Turning to `NC(=O)c1ccc[n+]([C@@H]2O[C@H](COP(=O)([O-])OP(=O)(O)OC[C@H]3O[C@@H](n4cnc5c(N)ncnc54)[C@H](O)[C@@H]3O)[C@@H](O)[C@H]2O)c1` [NAD], in series [1] (setting [4]), the “Activity” value stood at 5.6 nmol/min and the “Activity (%)” value is recorded as 90%. Further, in series [1] (setting [5]), the “Activity” value turned out to be 10.8 ± 1.3 nmol/min and the “Activity (%)” value was 102%. For the same molecule, the “effect of possible cofactors” value in series [2] (60 minute assays) was “No significant effect”.
With `CCCCCCCC/C=C\CCCCCCCCCCCC(=O)O` [erucic acid, (cis)-13-docosaenoic acid], in series [1] (setting [6]), the “RELATIVE ACTIVITY %” value amounted to 0%.
For the molecule `N[C@@H](CCC(=O)N[C@@H](CS)C(=O)NCC(=O)O)C(=O)O` [glutathione], in series [2], the “effect of possible cofactors” value is on record as “No significant effect”.
Take `CCCCC/C=C/C/C=C/CCCCCCCC(=O)O` [linolelaidic acid, (trans, trans)-9, 12-octadecadienoic acid]: the “RELATIVE ACTIVITY %” value in series [1] (setting [7]) amounted to 19%; in series [1] (setting [6]), 0%.
Turning to `CCCCC/C=C\C/C=C\CCCCCCCCO` [linoleyl alcohol, (cis, cis)-9, 12-octadecadien-1-ol], in series [1], the serves as substrate result is listed as “do not serve as substrates” and the “effect on isomerase activity” value was “inhibitors”. In addition, the “RELATIVE ACTIVITY %” value in series [1] (setting [7]) came to 81%. The “RELATIVE ACTIVITY %” value in series [1] (setting [6]) was 0%.
Regarding `[Mg]` [magnesium], in series [2] (60 minute assays), the “effect of possible cofactors” value is “no effect”.
In the case of `CCCCC/C=C\C/C=C\CCCCCCCC(=O)OC` [methyl linoleate, (cis, cis)-linoleic acid methyl ester], in series [1], the serves as substrate entry is given as “do not serve as substrates”. The entries for the “RELATIVE ACTIVITY %” value in series [1] (setting [7]) and in series [1] (setting [6]) were 69% and 0%, respectively. For the same molecule, the “effect on isomerase activity” value in series [1] is “inhibitors”.
Take `O=C(O)c1cc[c]([Hg][Cl])cc1` [p-chloromercuribenzoate]: the “inhibition of isomerase activity” value in series [2] is on record as “not inhibited”.
On to `CCCCCCCCCCCCCCCC(=O)O` [palmitic acid, hexadecanoic acid], for which the “RELATIVE ACTIVITY %” value in series [1] (setting [7]) is listed as 93%.
In the case of `CCCCCC/C=C\CCCCCCCC(=O)O` [palmitoleic acid, (cis)-9 hexadecenoic acid], the entries for the “RELATIVE ACTIVITY %” value in series [1] (setting [7]) and in series [1] (setting [6]) were 27% and 0%, respectively. Besides, in series [1] (inhibition of linoleic acid isomerization, calculated from secondary plots, read-out: inhibition constants (Ki)), the Ki was 33.1 µM.
In the case of `CCCCCCCCCCCCCCCCCC(=O)O` [stearic acid, octadecanoic acid], the “RELATIVE ACTIVITY %” value in series [1] (setting [7]) is listed as 107%.
In the case of `CC/C=C\C/C=C\C/C=C\C/C=C\CCCCC(=O)O` [stearidonic acid, (cis, cis, cis, cis)-6, 9, 12, 15 octadecatetraenoic acid], in series [1], the Vmax stood at 204 nmole/min/mg protein, the Km worked out at 18.9 µM and the “substrate has an inhibitory effect at concentrations above” value was above 120 µM. Besides, the “RELATIVE ACTIVITY %” value in series [1] (setting [6]) is 60%.
For `CCCCC/C=C\C/C=C\C/C=C\CCCCC(=O)O` [γ-linolenic acid, (cis, cis, cis)-6,9, 12-octadecatrienoic acid] the same measures were 236 nmole/min/mg protein, 23.8 µM, above 15 µM and 77%.

B1: P. acnes: (trans, cis)-10,12-linoleate isomerase from Propionibacterium acnes ATCC 6919, SEQ ID NO:61 (protein)
chain: MSISKDSRIAIIGAGPAGLAAGMYLEQAGFHDYTILERTDHVGGKCHSPNYHGRRYEMGAIMGVPSYDTIQEIMDRTGDKVDGPKLRREFLHEDGEIYVPEKDPVRGPQVMAAVQKLGQLLATKYQGYDANGHYNKVHEDLMLPFDEFLALNGCEAARDLWINPFTAFGYGHFDNVPAAYVLKYLDFVTMMSFAKGDLWTWADGTQAMFEHLNATLEHPAERNVDITRITREDGKVHIHTTDWDRESDVLVLTVPLEKFLDYSDADDDEREYFSKIIHQQYMVDACLVKEYPTISGYVPDNMRPERLGHVMVYYHRWADDPHQIITTYLLRNHPDYADKTQEECRQMVLDDMETFGHPVEKIIEEQTWYYFPHVSSEDYKAGWYEKVEGMQGRRNTFYAGEIMSFGNFDEVCHYSKDLVTRFFV
modifications: Propionibacterium acnes
For the molecule B1, in series [3], the “Enzyme Solubility” value was “S”. In series [3] (CLA isomer produced from linoleic acid), the “CLA Isomer” value is on record as 10,12. In addition, the “Optimal pH” value in series [3] (substrate linoleic acid) is given as 7.3. In series [3] (substrate linoleic acid, crude extract), the Km turned out to be 17.2 µM. Also, the Vmax in series [3] (substrate linoleic acid, purified enzyme) was 478^5 nmol/min/mg.
